The test system of one assay is Kuramochi cells RB-WT. Kind of assay: IncuCyte Kuramochi cell proliferation assay, RB-WT. It is filed as cell-based. Particulars: 72 hours, cell count. As for the experimental part: (§1) IncuCyte® assay was used to measure the effect of disclosed compounds on cell proliferation. Fluorescent microscopy images of cells were taken immediately after compound treatment and 72 hours later. Image analysis software was used to obtain cell counts as a function of compound concentration. Kuramochi cells labeled with mApple-H2B were seeded on 384-well assay-ready plates. Plates were placed in an IncuCyte® (Sartorius) and scanned at 0 and 72 hours. IncuCyte® software was used to count the number of fluorescent nuclei in each well. The fold change in cell count from 0 to 72 hours in wells treated with increasing compounds concentrations (10 pts, 1/2 log dilution, 20 µM top concentration) was normalized to DMSO control wells. The normalized cell counts were fit with dose response curves and a GI50 was calculated.

In a further assay the target is CDK2/Cyclin E1 (Homo sapiens, UniProt P24941). As to the kind of experiment: ADP-Glo Luminescent Kinase Assay (CDK2/E1-37C). The assay is classed as biochemical. Particulars: 0.18 nM CDK2/Cyclin E1, 100 μM ATP, Histone H1, 37° C.; read-out: ADPGLO (CDK2/E1-37C): IC50. As for the experimental part:
Inhibition of CDK2/Cyclin E1 activity by the presence of small molecules was evaluated using ADP-Glo Luminescent Kinase Assay (Promega). Activated CDK2/Cyclin E1 was incubated with its substrate Histone H1 (SignalChem H10-54N) in the kinase reaction buffer (100 μM ATP, 50 mM HEPES pH 7.5, 10 mM MgCl2, 1 mM EDTA, 2 mM DTT, 0.01% Brij35, 0.5 mg/mL BSA). Luminescence was recorded with an Envision plate reader (PerkinElmer).
Dose titrations of inhibitors in 100% DMSO were combined with 0.36 nM CDK2/Cyclin E1 in reaction buffer. The mixtures were incubated for 60 minutes at 37° C. before the addition of ATP and Histone H1 substrate to initiate the kinase reaction. The final conditions were 0.18 nM CDK2/Cyclin E1, 100 μM ATP, and […] Histone H1. The reactions were incubated at 37° C. for 90 minutes before being stopped with the addition of ADP-Glo reagent. This mixture was incubated at room temperature for 60 minutes before Kinase Detection Solution is added to generate luminescence. The stopped reactions were analyzed on an Envision plate reader. The conversion ratios were normalized to yield % activity, plotted against compound concentration, and fit to a four-parameter equation to determine the IC50 for each compound.
(In general: ADP-Glo first removes unused ATP, then detects ADP through luciferase.)

Another assay concerns Kuramochi cells RB-KO. Kind of assay: IncuCyte Kuramochi cell proliferation assay, RB-KO. The assay is classed as cell-based. Particulars: 72 hours, cell count, batch mean. The method, then: as §1

The structures appear in SMILES notation.

With `O=C(O)c1c(COC[C@@H]2CN(C(=O)c3cnn(Cc4ccc(Cl)cc4F)c3)CC23CN(C(=O)C2(C(F)(F)F)CC2)C3)cccc1C1CCC(C(F)(F)F)CC1` (stereo in doubt) [Compound I-71, 2-(((6-(1-(4-chloro-2-fluorobenzyl)-1H-pyrazole-4-carbonyl)-2-(1-(trifluoromethyl)cyclopropane-1-carbonyl)-2,6-diazaspiro[3.4]octan-8-yl)methoxy)methyl)-6-(4-(trifluoromethyl)cyclohexyl)benzoic acid], the IC50 is over 10 µM in the assay with Kuramochi cells RB-WT, at most 0.5 µM on CDK2/Cyclin E1 and over 10 µM in the assay on Kuramochi cells RB-KO.

Regarding `O=C(O)c1ccccc1-c1c(COC[C@@H]2CN(C(=O)c3cnn(Cc4ccc(F)cc4)c3)CC23CN(C(=O)C2(C(F)(F)F)CC2)C3)cccc1C1CCC(C(F)(F)F)CC1` (stereo in doubt) [Compound I-104, 2′-(((6-(1-(4-fluorobenzyl)-1H-pyrazole-4-carbonyl)-2-(1-(trifluoromethyl)cyclopropanecarbonyl)-2,6-diazaspiro[3.4]octan-8-yl)methoxy)methyl)-6′-(4-(trifluoromethyl)cyclohexyl)-[1,1′-biphenyl]-2-carboxylic acid], the IC50 in the assay with Kuramochi cells RB-WT was 0.5 to 5 µM; on CDK2/Cyclin E1, at most 0.5 µM; with Kuramochi cells RB-KO it was 5 to 10 µM.

Consider `O=C(O)c1ccccc1Cn1cc(C(=O)N2C[C@@H](COCc3cccc(C4CCC(C(F)(F)F)CC4)c3)C3(C2)CN(C(=O)C2(C(F)(F)F)CC2)C3)cn1` (stereo in doubt) [Compound I-113, 2-((4-(8-(((3-(4-(trifluoromethyl)cyclohexyl)benzyl)oxy)methyl)-2-(1-(trifluoromethyl)cyclopropane-1-carbonyl)-2,6-diazaspiro[3.4]octane-6-carbonyl)-1H-pyrazol-1-yl)methyl)benzoic acid], for which the IC50 with Kuramochi cells RB-WT is over 10 µM; at CDK2/Cyclin E1 it was 0.5 to 5 µM; with Kuramochi cells RB-KO it was over 10 µM.

As to `O=C(O)c1ccc(C2CCN(C(=O)COCC3CN(C(=O)c4cnn(Cc5ccccc5)c4)CC34CN(C(=O)C3(C(F)(F)F)CC3)C4)CC2)c(OC2CCCCC2)c1` (centres unmarked) [Compound I-60, 4-(1-(2-((6-(1-benzyl-1H-pyrazole-4-carbonyl)-2-(1-(trifluoromethyl)cyclopropane-1-carbonyl)-2,6-diazaspiro[3.4]octan-8-yl)methoxy)acetyl)piperidin-4-yl)-3-(cyclohexyloxy)benzoic acid], the IC50 in the assay with Kuramochi cells RB-WT and at CDK2/Cyclin E1 was over 10 µM throughout.

`O=C(O)c1c(COCC2CN(c3cc(F)cc4ncsc34)CC23CN(C(=O)C2(C(F)(F)F)CC2)C3)cccc1C1CCC(C(F)(F)F)CC1` (centres unmarked) [Compound I-61, 2-(((6-(5-fluorobenzo[d]thiazol-7-yl)-2-(1-(trifluoromethyl)cyclopropane-1-carbonyl)-2,6-diazaspiro[3.4]octan-8-yl)methoxy)methyl)-6-(4-(trifluoromethyl)cyclohexyl)benzoic acid]: the IC50 in the assay with Kuramochi cells RB-WT and on CDK2/Cyclin E1 was over 10 µM throughout.

Consider `O=C(O)C(=CC1CN(C(=O)c2cnn(Cc3ccc(C(F)(F)F)cc3)c2)CC12CN(C(=O)C1(C(F)(F)F)CC1)C2)Cc1cccc(-c2ccc(C(F)(F)F)cc2)n1` (centres unmarked) [Compound I-62, 3-(6-(1-(4-(Trifluoromethyl)benzyl)-1H-pyrazole-4-carbonyl)-2-(1-(trifluoromethyl)cyclopropane-1-carbonyl)-2,6-diazaspiro[3.4]octan-8-yl)-2-((6-(4-(trifluoromethyl)phenyl)pyridin-2-yl)methyl)acrylic acid], for which the IC50 in the assay on Kuramochi cells RB-WT and at CDK2/Cyclin E1 was over 10 µM in each case.

Regarding `O=C(O)C(=CC1CN(C(=O)c2cnc(O)cn2)CC12CN(C(=O)C1(C(F)(F)F)CC1)C2)Cc1cccc(-c2ccc(C(F)(F)F)cc2)n1` (centres unmarked) [Compound I-63, 3-(6-(5-hydroxypyrazine-2-carbonyl)-2-(1-(trifluoromethyl)cyclopropane-1-carbonyl)-2,6-diazaspiro[3.4]octan-8-yl)-2-((6-(4-(trifluoromethyl)phenyl)pyridin-2-yl)methyl)acrylic acid], the IC50 in the assay on Kuramochi cells RB-WT and on CDK2/Cyclin E1 was over 10 µM throughout.

(Values after patent US20260034123A1 (Cedilla Therapeutics, Inc., priority 2022, published 2026).)
